The record followed here is patent publication US12622916B2, “Use of H3K9me3 modulation for enhancing cognitive function” (THE REGENTS OF THE UNIVERSITY OF CALIFORNIA, priority 2015, dated 2026).

The structures appear in SMILES notation.

Series [1] relates to 14 DIV hippocampal neurons. Briefly: Oxygen-glucose deprivation (OGD)-induced cytotoxicity, LDH assay. The series is classed as cell-based. The conditions noted are these: OGD 2 hours, LDH 48 hours after OGD. The protocol: OGD in 14 DIV hippocampal neurons was induced by an approach similar to that described by Newcomb-Fernandez et al (2001). Normal media was replaced with PBS and culture plates were placed in an airtight chamber. The chamber was flushed with N2 and CO2 for 3 minutes, sealed, and placed in a 37° C. incubator for 2 hours. PBS was replaced with DMEM (serum-free) and cultures were returned to a normoxic environment. Culture medium was collected 48 hours after the cultures had returned to a normal environment. The cytotoxicity was measured by LDH assay (Thermo-Fisher). To calculate % Cytotoxicity, subtract the LDH activity of the Spontaneous LDH, release Control (water-treated) from the chemical-treated sample LDH activity, divide by the total LDH activity [(Maximum LDH Release Control activity)—(Spontaneous LDH Release Control activity)], and multiply by 100:
Initially we tested the effect of ETP69 on oxygen-glucose deprivation (OGD)-induced cytotoxicity. Mature hippocampal neurons (14 DIV) were treated with OGD for 2 hours in the presence or absence of ETP69. Cytotoxicity was measured by LDH assay 48 hours after OGD. […] FIG. 13 is a graphical illustration of the effect of ETP69 on neuronal survival after oxygen-glucose deprivation (OGD). 14 DIV hippocampal neurons were treated with OGD for 2 hours in the presence or absence of ETP. Cytotoxicity was measured by LDH assay 48 hours after OGD. […]

In series [2] the test system is hippocampal synaptosomes. Briefly: Flow synaptometry of hippocampal synaptosomes of aged mice. The format is in vivo. The conditions noted are these: 10 mg/kg i.p. The protocol:
(§1) Spine counts: In another series of experiments 10 aged mice (20-22 months) were injected with ETP69 (10 mg/kg; i.p) or vehicle (i.p) and 24 hours later the animals were euthanized and the brains were separated into two hemispheres. Right hemisphere was used for Golgi staining and the left was processed for flow synaptometry. Staining was conducted according to manufacturer's information (Golgi-Cox, Bioenna).
Flow Synaptometry: Fresh synaptosome P2 fractions were obtained from whole mouse hippocampus using our long-standing protocol. Briefly, the fractions were obtained from the hippocampus by homogenizing tissue (1:10 w/v) in ice-cold sucrose 320 mM. All the steps were carried out at 4° C.; sucrose buffer, grinder, pestle and microfuge tubes were all pre-cooled on ice. Hippocampi were rapidly dissected from a single mouse and homogenized in 320 mM sucrose (1.5 ml) containing HEPES [10 mM] and protease/phosphatase inhibitors cocktail, pH 7.4. Homogenization consisted of 6-8 manual strokes in a glass-Teflon grinder, clearance (between plunger and glass): 0.15-0.25 mm. Plunger was gently rotated during strokes while the grinder was kept on ice. The homogenate was centrifuged at 1200 g for 10 min. Supernatant (S1, containing mitochondria and synaptosomes) was transferred into two clean microfuge tubes and centrifuged at 12,000 g for 20 min. Supernatants (S2) were carefully removed using a plastic tip and vacuum. Pellets (P2, corresponding to the crude synaptosome fraction) were resuspended by gently pipetting up and down in 1.5 ml of PBS Protein concentration was determined using the BCA assay using bovine serum albumin (BSA) as standard. Before immunolabeling, all samples were adjusted to the same protein concentration using PBS as diluent. Immunolabeling for flow synaptometry analysis was performed according to a method for staining of extracellular/intracellular antigens using 200 ul of synaptosomal fractions (50-100 μg protein). Antibodies: GluR1 (extracellular) (Millipore, ABN241, DIL=1:400), p-Akt-ser473 (Cell Signaling, 4060, DIL=1:400), PSD-95 (Millipore, MAB1598, DIL=1:400), anti-rabbit IgG Alexa-488 ad anti-mouse IgG Alexa 647 (Life Science, DIL=1:400). […] Relative size and granularity was determined by forward (FSC) and side scatter (SSC) properties. […] Alexa 488 and Alexa 647 fluorochromes were detected by the FL1 and FL4 detectors, respectively. […] Ten thousand size-gated particles were collected and analyzed for each sample. […]
Next, we studied the influence of ETP69 on synapses using flow synaptometry, an innovative approach to molecularly characterize isolated synaptosomes (presynaptic terminals attached to post-synaptic dendritic spines). […] After drug treatment, hippocampal synaptosome fractions were immunostained and analyzed by flow synaptometry. […]

The test system of series [3] is CA1 pyramidal neurons. Briefly: Spine counts (Golgi staining) on CA1 pyramidal neurons of aged mice. The format is in vivo. Particulars: 10 mg/kg i.p., 24 hours. The protocol:
as §1
Specifically, we counted and classified spines on CA1 pyramidal neurons. Dendrite segments from neurons in CA1 of the hippocampus were imaged by confocal microscopy and a blinded investigator counted and classified dendritic spines according to their morphology. Spines were manually counted and classified as thin, mushroom, or stubby, according to previously described criteria.
For each animal, at least 3 pyramidal neurons and 200 μm of total dendrite length and 250-500 spines were analyzed (n=5 animals per group). All of the neurons were chosen from the dorsal part of the CA1 hippocampal region (according with it essential role in spatial memory) and were completely stained along basal and apical dendrites. FIG. 10 presents representative images showing effect of ETP69 treatment on spines in the CA1 of the hippocampus.

As to `CN1C(=O)[C@@]23C[C@](C)(C#N)[C@H](c4ccc5c(c4)OCO5)N2C(=O)[C@]1(C)SS3` (racemic) [ETP69, Rac-(3S,6S,7S,8aS)-6-(benzo[d][1,3]dioxol-5-yl)-2,3,7-trimethyl-1,4-dioxohexahydro-6H-3,8a-epidithiopyrrolo[1,2-a]pyrazine-7-carbonitrile], the “OGD-induced cytotoxicity (LDH)” value in series [1] (4 nM) is “rescued neurons from OGD-induced cytotoxicity”. Besides, in series [1] (100 nM), the “OGD-induced cytotoxicity (LDH)” value was “not 100 nM rescued neurons from OGD-induced cytotoxicity”. In addition, in series [2] (24 hours), the “PSD95 levels per particle (Mean Fluorescence of intensity)” value was “No detectable changes” and the “proportion of size-gated synaptosomes expressing PSD95” value is given as “increases the proportion of synaptosomes expressing PSD95”. Moreover, the “PSD95-positive events co-expressing surface GluR1” value in series [2] (versus vehicle-treated controls) was “increase”. In series [2] (versus vehicle-treated mice), the “proportion of events expressing both p-Akt and PSD-95” value was “increased the proportion of events expressing both p-Akt and PSD-95”. Also, in series [3] (CA1), the “density of stubby spines” value was “significantly higher density”, the “density of thin spines” value was “significantly higher density” and the “numbers of mushroom spines/length of dendrite” value is recorded as “no difference”. The “increase in total number of spines per length of dendrite compared to controls” value in series [3] (CA1 hippocampus) is 45%.
